Among the data in PubChem BioAssay (NCI) are GI50 and TGI values, retold here.

SMILES strings stand for the structures.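 How tested: cells in 96-well plates exposed to compound for 48 hours at five concentrations. The concentration for 50% growth inhibition is given as GI50. TGI: total growth inhibition.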

Test systems include A549 NSCLC; CCRF-CEM leukemia; EKVX NSCLC; IGROV1 ovarian; LOX IMVI melanoma; OVCAR-8 ovarian; SK-MEL-5 melanoma; SN12C renal; UACC-257 melanoma; HCT-116 colon.
Experiment in all cases: NCI-60 cell line screen, 48 h

As to `NC(N)=N/N=C/c1c(-c2cc(Cl)sc2Cl)nc2n1CCS2`, the GI50 is 9.57 µM in the assay on A549 NSCLC; 8.67 µM with CCRF-CEM leukemia; 9.21 µM in the assay on EKVX NSCLC; 16.4 µM in the assay with IGROV1 ovarian; 8.33 µM in the assay on LOX IMVI melanoma; 10.3 µM with OVCAR-8 ovarian. Further, the GI50 in the assay on SK-MEL-5 melanoma was 10.1 µM; with SN12C renal it was 7.18 µM; with UACC-257 melanoma, 9 µM. Besides, the TGI with A549 NSCLC is 22 µM; in the assay with CCRF-CEM leukemia, 19.6 µM; in the assay with EKVX NSCLC, 18.1 µM; with IGROV1 ovarian, above 50 µM; in the assay on LOX IMVI melanoma it was 15.8 µM; in the assay on OVCAR-8 ovarian it was 22.1 µM. The results for the TGI with SK-MEL-5 melanoma, in the assay on SN12C renal and in the assay with UACC-257 melanoma were 18.2 µM, 14.2 µM and 20.4 µM, respectively.

On to `Cn1c(=O)c2c(nc3n2CCC(=O)N3)n(C)c1=O`, for which the TGI with A549 NSCLC, in the assay with CCRF-CEM leukemia, in the assay on EKVX NSCLC, in the assay on IGROV1 ovarian, with LOX IMVI melanoma and in the assay with OVCAR-8 ovarian was above 100 µM each time. Moreover, the TGI in the assay with SK-MEL-5 melanoma, in the assay with SN12C renal and in the assay on UACC-257 melanoma was above 100 µM in each case.

With `COc1cc2ccc3c4cc(OC)c(OCc5ccccc5)cc4cnc3c2cc1OC`, the TGI in the assay with A549 NSCLC, in the assay with CCRF-CEM leukemia, with EKVX NSCLC, in the assay on IGROV1 ovarian, in the assay on OVCAR-8 ovarian and with SK-MEL-5 melanoma was above 100 µM throughout. Besides, the TGI in the assay on SN12C renal and with UACC-257 melanoma was above 100 µM each time.

For `O=c1c(OC/C(=N/O)c2ccccc2)c(-c2ccccc2)oc2ccccc12`, the GI50 with A549 NSCLC is 30.3 µM; in the assay with CCRF-CEM leukemia it was 0.461 µM; with EKVX NSCLC it was 12.3 µM; with LOX IMVI melanoma it was 10.5 µM; with OVCAR-8 ovarian it was 21.7 µM; in the assay on SK-MEL-5 melanoma, 7.88 µM. For the same molecule, the GI50 is 11.2 µM in the assay on SN12C renal and 14.1 µM with UACC-257 melanoma. Moreover, the TGI with A549 NSCLC is above 50 µM; in the assay with CCRF-CEM leukemia, 6.47 µM; in the assay on EKVX NSCLC it was 30.1 µM; with LOX IMVI melanoma, 19.5 µM; in the assay on OVCAR-8 ovarian, above 50 µM; in the assay with SK-MEL-5 melanoma, 15 µM. For the same molecule, the results for the TGI in the assay with SN12C renal and in the assay on UACC-257 melanoma were 28.7 µM and 30.4 µM, respectively.

`OCC1OC(N2C=C(c3nc4ccccc4s3)C3C=CC=CC32)C(O)C1O` (stereo not given): the GI50 in the assay on A549 NSCLC is 12.7 µM; with EKVX NSCLC, 6.27 µM; with HCT-116 colon it was 5.21 µM; in the assay on IGROV1 ovarian, 14.8 µM; in the assay with LOX IMVI melanoma, 7.1 µM; in the assay with OVCAR-8 ovarian, 11.4 µM. Also, the values for the GI50 in the assay on SK-MEL-5 melanoma, in the assay with SN12C renal and in the assay with UACC-257 melanoma were 6.1 µM, 11.1 µM and 9.17 µM, respectively. Besides, the TGI is 41.2 µM with A549 NSCLC; 25.4 µM in the assay with EKVX NSCLC; above 50 µM with HCT-116 colon; above 50 µM with IGROV1 ovarian; 18 µM with LOX IMVI melanoma; 29.5 µM with OVCAR-8 ovarian. Also, the TGI in the assay with SK-MEL-5 melanoma turned out to be 14.5 µM; with SN12C renal, 34.3 µM; in the assay with UACC-257 melanoma, 22.1 µM.

With `O=C(N=Nc1c(O)[nH]c2ccccc12)c1ccccc1O`, the TGI in the assay on A549 NSCLC, with CCRF-CEM leukemia, with EKVX NSCLC, in the assay on HCT-116 colon, with LOX IMVI melanoma and in the assay on OVCAR-8 ovarian was above 100 µM each time. The TGI in the assay with SN12C renal and in the assay with UACC-257 melanoma was above 100 µM in each case.

In the case of `CC1=C2N3C[C@@H](n4c(=O)n(C)c(=O)n43)C23CCC1n1c(=O)n(C)c(=O)n13`, the TGI in the assay on CCRF-CEM leukemia, in the assay with EKVX NSCLC, with IGROV1 ovarian, with LOX IMVI melanoma, with OVCAR-8 ovarian and with SK-MEL-5 melanoma was above 100 µM in each case. Moreover, the TGI with SN12C renal and in the assay with UACC-257 melanoma was above 100 µM throughout.

Take `CC[C@@]1(OC(=O)CCC(=O)O)C(=O)OCc2c1cc1n(c2=O)Cc2cc3ccccc3nc2-1`: the TGI with A549 NSCLC is 5.54 µM; in the assay on CCRF-CEM leukemia, 0.127 µM; with EKVX NSCLC it was above 100 µM; in the assay with IGROV1 ovarian it was 5.98 µM; with LOX IMVI melanoma, 0.596 µM; with OVCAR-8 ovarian, 9.38 µM. Besides, the results for the TGI in the assay with SK-MEL-5 melanoma, in the assay with SN12C renal and with UACC-257 melanoma were 0.373 µM, 4.22 µM and 2.09 µM, respectively.

As to `CC(C)(C)N=CN1CCC(C(c2ccccc2)c2ccccc2)CC1`, the TGI with A549 NSCLC, in the assay with EKVX NSCLC, in the assay with HCT-116 colon, in the assay on IGROV1 ovarian, with LOX IMVI melanoma and with OVCAR-8 ovarian was above 100 µM each time. In addition, the TGI with SK-MEL-5 melanoma, with SN12C renal and with UACC-257 melanoma was above 100 µM in each case.

Turning to `CCC(=O)N1C/C(=C/c2ccc(OC)cc2)C(=O)/C(=C/c2ccc(OC)cc2)C1`, the GI50 in the assay on CCRF-CEM leukemia is 1.75 µM; with HCT-116 colon it was 0.263 µM; in the assay on IGROV1 ovarian, 2.21 µM; with LOX IMVI melanoma it was 0.95 µM; with OVCAR-8 ovarian it was 2.86 µM; in the assay with SK-MEL-5 melanoma, 1.62 µM. The GI50 with SN12C renal was 1.78 µM; in the assay on UACC-257 melanoma it was 2.21 µM. Besides, the TGI is 8.31 µM with CCRF-CEM leukemia; 0.646 µM in the assay on HCT-116 colon; 4.93 µM in the assay with IGROV1 ovarian; 2.28 µM with LOX IMVI melanoma; above 100 µM with OVCAR-8 ovarian; 3.04 µM in the assay with SK-MEL-5 melanoma. Further, the TGI in the assay with SN12C renal worked out at 3.51 µM; with UACC-257 melanoma, 5.88 µM.

As for `C=CCN(N=O)C(=O)N(CCC)CCCC(NC(C)=O)C(=O)NCc1ccccc1` (stereo not given), the TGI with A549 NSCLC, in the assay with CCRF-CEM leukemia, in the assay with EKVX NSCLC, in the assay with IGROV1 ovarian, with LOX IMVI melanoma and with OVCAR-8 ovarian was above 100 µM each time. In addition, the TGI in the assay with SK-MEL-5 melanoma, with SN12C renal and with UACC-257 melanoma was above 100 µM throughout.

Consider `Cc1ccc(S(=O)(=O)ON/N=C2/C3OC3[C@@H]3CCCC[C@H]23)cc1` (stereo not given in full), for which the TGI with A549 NSCLC, with CCRF-CEM leukemia, in the assay on EKVX NSCLC, with IGROV1 ovarian, in the assay on OVCAR-8 ovarian and in the assay with SN12C renal was above 100 µM throughout. Further, the TGI in the assay with UACC-257 melanoma came to 32.5 µM.
